From US20220334101A1, “MODULATING EXTRACELLULAR MATRIX MOVEMENT” (Helmholtz Zentrum Muenchen - Deutsches Forschungszentrum …, priority 2019, published 2022)
Counter-ions that a name gives are not always drawn.

What follows are compounds tested on skin-fascia explants (assay: Scar-in-a-dish (SCAD) ex vivo skin-fascia explant assay, screening of Prestwick chemical library). Conditions: molecules of table 1 named as inhibitors of ECM movement.
Assay type: cell-based, mouse
Source text: Post born Day 0 (P0) neonates of C57BL/6J wild type mouse were first sacrificed by decapitation. Then dorsal back skin was isolated to make 2 mm full thickness biopsies (0 2 mm, Stiefel) that included the epidermis, dermis and deep subcutaneous fascia layers. The whole skin tissue explant system is termed as scar-in-a-dish (SCAD) assay (Patent Application no. PLA17A13). The SCAD tissue was maintained in DMEM/F12 cell culture medium (Life Technologies) supplemented with 10% FBS (Life Technologies), 1% non-essential amino acid (Thermo Fisher), 1% Glutamax (Thermo Fisher), 1% penicillin and streptomycin (Thermo Fisher) in a 37° C. incubator supplied with […] and 5% CO2. Medium was changed every other day until day 5 when SCADs were collected and fixed for histology analysis. To be noticed, the excised skin was submerged […] in culture media, which confined the scar-prone fibroblasts to the explant and discouraged their adherence to the tissue culture plate.
The PCL provides an additional advantage as all chemicals are of stable physicochemical properties, show a high range of chemical diversity, and are with known bioavailability and safety data in humans. All these information helps to reduce the probability of screening low-quality hits and save the costs of preliminary screening process.
In order to accommodate to medium scale screening approach, the Inventors adapted the SCAD explant system into 96-well plate (Falcon) formats, with each well contained one biopsy. […] Plate and liquid handling were performed using a high-throughput screening platform system composed of a Sciclone G3 Liquid Handler from PerkinElmer (Waltham, Mass., USA). On Day 0 tissues were treated either with the respective compound (1 mM stock solution) dissolved in 100% dimethyl sulfoxide (DMSO, Carl Roth) or DMSO alone. 0.5 μl of compounds/DMSO were transferred with a 96-array head to 200 μl DMEM/F12 medium per well to keep the final DMSO concentrations at […]. Tissues were then incubated (37° C.; 5% CO2) for 72 h prior to a second round of compound treatment, which was performed by exchanging cell culture medium per well and transferring […] of compounds/DMSO into the fresh medium. After an incubation time of another 48 h (37° C.; 5% CO2) the tissues were harvested and fixed for histological processing and imaging.
Briefly, the Inventors excised 2-mm full thickness skin biopsies that included epidermis, dermis, and deep subcutaneous fascia layers from mouse backs (see Methods). Skin-fascia explants were submerged fascia-side up in culture media, to confine scar-prone fibroblasts to the explant and discourage their adherence to the tissue culture plate.
The Prestwick library has selected a diverse array of chemicals with strong physicochemical properties, with known bioavailability and clinical safety data. The library is an ideal place to start screening as it covers all major therapeutic chemical classes such as central nervous system, cardiovascular system, metabolism, and infectious diseases.

Structure (SMILES)	phenotype as inhibitor of ECM movement
C=C1/C(=C\C=C2/CCC[C@]3(C)[C@@H]([C@H](C)CCCC(C)C)CC[C@@H]23)C[C@@H](O)C[C@@H]1O [Alfacalcidol]	anti-fibrotic phenotype
CCC(C)(C)c1ccc(CC(C)CN2C[C@@H](C)O[C@@H](C)C2)cc1 (stereo partly shown) [Amorolfine hydrochloride]	anti-fibrotic phenotype
CN1CCCC(n2nc(Cc3ccc(Cl)cc3)c3ccccc3c2=O)CC1 (stereo not shown) [Azelastine HCl]	anti-fibrotic phenotype
CC1(C)S[C@@H]2[C@H](NC(=O)Cc3ccccc3)C(=O)N2[C@H]1C(=O)O.CC1(C)S[C@@H]2[C@H](NC(=O)Cc3ccccc3)C(=O)N2[C@H]1C(=O)O.c1ccc(CNCCNCc2ccccc2)cc1 [Benzathine benzylpenicillin]	anti-fibrotic phenotype
C[N+](C)(CCOc1ccccc1)Cc1ccccc1.O=C([O-])c1cc2ccccc2cc1O [Bephenium hydroxynaphthoate]	anti-fibrotic phenotype
CC(C)/N=c1\cc2n(-c3ccc(Cl)cc3)c3ccccc3nc-2cc1Nc1ccc(Cl)cc1 [Clofazimine]	anti-fibrotic phenotype
CC(C)N(CCC(C(N)=O)(c1ccccc1)c1ccccn1)C(C)C (stereo not shown) [Disopyramide]	anti-fibrotic phenotype
O=c1[nH]c2ccccc2n1CCCN1CCC(n2c(=O)[nH]c3cc(Cl)ccc32)CC1 [Domperidone]	anti-fibrotic phenotype
CCN1CC(CCN2CCOCC2)C(c2ccccc2)(c2ccccc2)C1=O (stereo not shown) [Doxapram hydrochloride]	anti-fibrotic phenotype
COc1cccc2c1C(=O)c1c(O)c3c(c(O)c1C2=O)C[C@@](O)(C(=O)CO)C[C@@H]3O[C@H]1C[C@H](N)[C@H](O)[C@H](C)O1 [Doxorubicin hydrochloride]	anti-fibrotic phenotype
CC[C@]12CCCN3CCc4c(n(c5ccccc45)C(=O)C1)[C@@H]32 [Eburnamonine (−)]	anti-fibrotic phenotype
CC(O)(P(=O)(O)O)P(=O)(O)O [Etidronic acid, disodium salt]	anti-fibrotic phenotype
NC(N)=Nc1nc(CSCCC(N)=NS(N)(=O)=O)cs1 [Famotidine]	anti-fibrotic phenotype
C[C@@H]1C[C@H]2[C@@H]3C[C@H](F)C4=CC(=O)C=C[C@]4(C)[C@@]3(F)[C@@H](O)C[C@]2(C)[C@@]1(O)C(=O)COC(=O)C(C)(C)C [Flumethasone pivalate]	anti-fibrotic phenotype
CC1(C)O[C@@H]2C[C@H]3[C@@H]4C[C@H](F)C5=CC(=O)C=C[C@]5(C)[C@@]4(F)[C@@H](O)C[C@]3(C)[C@]2(C(=O)CO)O1 [Fluocinolone acetonide]	anti-fibrotic phenotype
CCC(=O)O[C@]1(C(=O)SCF)[C@H](C)C[C@H]2[C@@H]3C[C@H](F)C4=CC(=O)C=C[C@]4(C)[C@@]3(F)[C@@H](O)C[C@@]21C [Fluticasone propionate]	anti-fibrotic phenotype
CCCCN(CCCC)CCC(O)c1cc2c(Cl)cc(Cl)cc2c2cc(C(F)(F)F)ccc12 (stereo not shown) [Halofantrine hydrochloride]	anti-fibrotic phenotype
Clc1cc(Cl)c(OCC#CI)cc1Cl [Haloprogin]	anti-fibrotic phenotype
CC(=O)N(CC(O)CN(C(C)=O)c1c(I)c(C(=O)NCC(O)CO)c(I)c(C(=O)NCC(O)CO)c1I)c1c(I)c(C(=O)NCC(O)CO)c(I)c(C(=O)NCC(O)CO)c1I (stereo not shown) [Iodixanol, lodixanol]	anti-fibrotic phenotype
O=C(c1ccccc1)c1ccc2n1CCC2C(=O)O (stereo not shown) [Ketorolac tromethamine]	anti-fibrotic phenotype
C[C@H](N)[C@H](O)c1ccc(O)c(O)c1 [Levonordefrin]	anti-fibrotic phenotype
CC(=O)[C@H]1CC[C@H]2[C@@H]3C[C@H](C)C4=CC(=O)CC[C@]4(C)[C@H]3[C@@H](O)C[C@]12C [Medrysone]	anti-fibrotic phenotype
